Series [1] can be described thus: Concentration of (poly)phenolic metabolites in fasting urine at baseline, 24 h after single MP beverage and 15th day after 14-day MP intake (UHPLC-QQQ-MS). The conditions noted are these: for concentration at 15 day / concentration at 0 h / concentration at 24 h: human, urine, oral; for concentration at 0 h / concentration at 24 h: 500 g. An excerpt:
The acute trial was a randomized, 3 arm, within-subject crossover study design (Figure 5A). The trial initiated with 3 days of food record collection to assess background (pre-study) dietary intake followed by counseling to adhere to a diet devoid of mango or its parts and relatively low in polyphenol-rich beverages/foods, which was maintained throughout the duration of the trial. […] In general, subjects were encouraged to follow their “usual” diet with the exception of foods/beverages that may interfere with the outcomes of the study. Food intake diaries and, phone call and email reminders helped subjects maintain compliance throughout the study period. After an initial 7-day run-in period on the limited polyphenol diet, subjects were assigned to a randomization sequence providing 1 of 3 study test beverages (recipes provided in Appendix A, Table A3) on three separate days in a random order: MP (500 g), MP (500 g) + VC (100 mg) or VC (100 mg) beverages. On each study day subjects arrived fasted and well hydrated. After standard admission procedures were completed (e.g., review of compliance with dietary requirements for 3 days prior to study day, dinner meal intake, usual sleep patterns), a catheter was placed by a registered nurse in subjects’ non-dominant arm and a fasting/baseline blood sample was collected (0 h). Subjects were provided with a standard breakfast meal 2 h after the study beverages. The breakfast meal was comprised of a buttermilk biscuit with butter and jelly, and scrambled egg white with shredded white cheddar cheese. After the 6 h blood collection, subjects ate a low polyphenol lunch consisting of dry roasted peanuts and fresh peeled cucumber with ranch dressing (Appendix A, Table A3).
Spot urine samples were collected in urine collection cups, immediately placed on ice and then aliquoted into individual cryovials. All the samples were stored at −80 °C until analysis.
A 14-day feeding trial was conducted with the MP only to study the effect of repetitive intake of MP on (poly)phenolic metabolite profiles. Upon completion of the acute trial, subjects were instructed to continue on the low polyphenolic diet for 2 weeks while consuming MP beverages (provided by CNRC) daily in the morning (250 g MP + 50 g water) and evening (250 g MP + 50 g water). On day 14, subjects consumed both beverages (500 g of MP in total) in the morning and reported to the CNRC on the 15th day after an overnight fast to provide a fasting blood and urine sample (Figure 5B). Blood and urine samples were collected as described above and stored at −80 °C until analysis.
The supernatant was collected and filtered through 0.2 µm polypropylene syringe filter before HPLC analysis.
The ESI conditions were the same as those used in the UHPLC-Q-TOF analysis. The quantification of the compounds was conducted by multiple-reaction monitoring (MRM) transitions. Spectra were recorded in both positive- and negative-ion mode with capillary voltage of 4500 V and drying gas flow rate of 9 L/min at 200 °C. The sheath gas temperature and flow rate were 300 °C and 11 L/min, respectively. Standards were optimized for collision energies, fragmentor voltages and MRM transitions using Mass Hunter Optimizer. The MRM transition for metabolites were created based on the results from UHPLC-Q-TOF-MS. Standards for plasma analysis were prepared in blank plasma (charcoal-stripped human plasma obtained from Bioreclamation IVT) for matrix match and for urine analysis were prepared in SMP.
The flow rate was maintained at 0.4 mL/min and the injection volume was 5 μL. The mobile phase consisted of acidified water (0.1% formic acid) (A) and acidified acetonitrile (0.1% formic acid) (B). The gradient for the separation of compounds was as follows: 5 to 5% B from 0 to 1 min; 10% B at 3 min; 15% B at 7 min; 15% B at 9 min; 20% B at 10 min; 20% B at 11 min; 25% B at 12 min; 30% B at 13 min; 30% B at 14 min; 95% B at 15 min; and back to 5% B at 16 min.

The nature of series [2]: clinical. Type of series: in vivo, human. Details: AUC0–24h: concentration or dose not given beside the values. How it is done:
SPE procedure was conducted to extract and concentrate the (poly)phenolic compounds and their metabolites from the plasma samples. Briefly, plasma samples were thawed on ice and 500 µL plasma was diluted with 1.5 mL of 0.1% formic acid in water with addition of internal standards (2-methylhippuric acid (2 ng/mL), phloridizin (1 ng/mL)) before being loaded on preconditioned SPE cartridges. The cartridges were washed with 0.1% formic acid in water (1 mL) after loading with plasma samples. The elution of the compounds was achieved by 0.1% formic acid in methanol (1 mL) and the eluent was dried under nitrogen gas at room temperature. […] Supernatant was collected in amber HPLC vials before analysis.
The absorption and elimination of 11 major mango metabolites over 24 h was determined after MP, MP + VC, and VC intake. The plasma concentration/area at each time point was determined by the mean of 13 subjects. The time vs. concentration curves and the time vs. area curves were created using GraphPad Prism (version 8.2.1). […] Tmax is the time (h) when Cmax was achieved. Wilcoxon signed-rank test was used for Tmax analysis due to non-normal distribution. Area under the plasma concentration time curve (AUC0−24h, nmol·h/L) was calculated by the linear trapezoidal method using Microsoft Excel 2013, version 15 [63]. […]

The mark [3] stands for this setting: human plasma, 0−24 h, after VC (vitamin C 100 mg) beverage, mean ± standard error, read-out: Cmax.
Where [4] appears, read: human plasma, after VC beverage, mean ± standard error.
Where [5] appears, read: human plasma, after MP + VC beverage, mean ± standard error.

Where two headings read alike, the source gives them in different places.

As to `O=C(O)c1cccc(O)c1O` [2,3-Dihydroxybenzoic acid], in series [1], the concentration at 15 day amounted to 0.3 ± 0.1 µM, the concentration at 0 h came out at 0.3 ± 0.1 µM and the concentration at 24 h was 0.2 ± 0.1 µM.
As for `O=C(O)c1cc(O)ccc1O` [2,5-Dihydroxybenzoic acid], in series [1], the concentration at 15 day is 7.9 ± 2.7 µM, the concentration at 0 h was found to be 6.7 ± 1.6 µM and the concentration at 24 h worked out at 4.9 ± 1 µM.
As for `O=C(O)c1ccc(O)c(O)c1` [3,4-Dihydroxybenzoic acid], in series [1], the concentration at 15 day stood at 0.8 ± 0.2 µM, the concentration at 0 h was 2.4 ± 0.7 µM and the concentration at 24 h came out at 1.1 ± 0.3 µM.
Turning to `O=C(O)Cc1ccc(O)c(O)c1` [3,4-Dihydroxyphenylacetic acid], in series [1], the concentration at 15 day worked out at 3.8 ± 0.4 µM, the concentration at 0 h turned out to be 8 ± 1.6 µM and the concentration at 24 h was 4.5 ± 0.8 µM.
Take `O=C(O)CCc1cccc(O)c1` [3-Hydroxyphenylpropanoic acid]: in series [1] (in vivo), the “Concentration in fasting urine, Mean ± std Error, 0 h (Fasting)” value is 3.1 ± 0.8 µM; the “Concentration in fasting urine, Mean ± std Error, 15 Days (Fasting)” value is 4.4 ± 1.9 µM; the “Concentration in fasting urine, Mean ± std Error, 24 h (Fasting)” value is 2.0 ± 0.3 µM.
For `O=C(O)c1ccc(O)cc1` [4-Hydroxybenzoic acid], in series [1], the concentration at 15 day came out at 5.4 ± 0.8 µM, the concentration at 0 h worked out at 6.1 ± 1 µM and the concentration at 24 h was 5.9 ± 0.9 µM.
In the case of `O=C(O)Cc1ccc(O)cc1` [4-Hydroxyphenylacetic acid], in series [1] (in vivo), the “Concentration in fasting urine, Mean ± std Error, 0 h (Fasting)” value was found to be 4.2 ± 1.3 µM; the “Concentration in fasting urine, Mean ± std Error, 15 Days (Fasting)” value is 3.0 ± 0.9 µM; the “Concentration in fasting urine, Mean ± std Error, 24 h (Fasting)” value is 2.6 ± 0.6 µM.
`Cc1ccc(C(=O)NCC(=O)O)cc1` [4-Methylhippuric acid]: in series [1] (in vivo), the “Concentration in fasting urine, Mean ± std Error, 0 h (Fasting)” value worked out at 2.0 ± 1.0 µM; the “Concentration in fasting urine, Mean ± std Error, 15 Days (Fasting)” value was 1.2 ± 0.4 µM; the “Concentration in fasting urine, Mean ± std Error, 24 h (Fasting)” value was 1.5 ± 0.9 µM.
For the compound `O=C(O)/C=C/c1ccc(O)c(O)c1` [Caffeic acid], in series [1] (human fasting urine, 24 h after single-time MP beverage intake), the “Concentration in fasting urine, Mean ± std Error, 24 h (Fasting)” value is reported as “Not detected”. Further, in series [1], the concentration at 15 day worked out at 0.1 µM and the concentration at 0 h came to 0.1 µM.
With `Oc1ccccc1O` [Catechol], in series [1], the concentration at 15 day was 15.1 ± 4 µM, the concentration at 0 h is 18.7 ± 12.2 µM and the concentration at 24 h was 15.7 ± 4.1 µM.
As to `O=Cc1ccc(O)cc1` [Compound 4-Hydroxybenzaldehyde], in series [1], the concentration at 15 day was 0.2 µM, the concentration at 0 h turned out to be 0.2 ± 0.1 µM and the concentration at 24 h is 0.2 µM.
For `O=C(O[C@@H]1O[C@H](CO)[C@@H](O)[C@H](O)[C@H]1O)c1cc(O)c(O)c(O)c1` [Compound C2], in series [2] (human, in vivo), the Cmax (commonly the highest concentration seen after dosing) is 0.0134 ± 0.0019 µM and the Tmax is 2.4 ± 0.3 h. In series [2] (human, in vivo, 100 mg), this compound gave a Cmax of 0.0021 ± 0.0003 µM. In series [2] (in vivo), the “difference in plasma concentrations/areas after MP + VC beverage compared to MP beverage alone” value is given as “not statistically significant” and the “time within which absorbed” value lay within 1 to 2 h.
Regarding `O=S(=O)(O)Oc1cccc(O)c1O` [Compound C8], the Cmax in series [2] (setting [3]) came to 2.56 ± 0.894 µM; in series [2] (human, in vivo), 10 ± 1.78 µM. The “AUC0–24h” value came to 5.5049 ± 1.7634 µM·h in series [2] (setting [4]) and 18.8521 ± 3.4916 µM·h in series [2] (human, in vivo). Moreover, in series [2] (human, in vivo), the Tmax was determined as 7.3 ± 0.6 h.
Turning to `O=C(O)[C@H]1O[C@@H](Oc2ccccc2O)[C@H](O)[C@@H](O)[C@@H]1O` [Compound C10, catechol glucuronide], the Cmax in series [2] (human plasma, 0−24 h, after MP (mango pulp 500 g) beverage, mean ± standard error, n = 13, read-out: Cmax) was 0.472 ± 0.27 µM; in series [2] (human plasma, 0−24 h, after MP + VC (mango pulp 500 g + vitamin C 100 mg) beverage, mean ± standard error, read-out: Cmax), 0.186 ± 0.0458 µM; in series [2] (setting [3]), 0.0106 ± 0.0032 µM. Besides, the “AUC0–24h” value was found to be 0.4833 ± 0.108 µM·h in series [2] (setting [5]); 1.8309 ± 1.391 µM·h in series [2] (human plasma, after MP beverage, linear trapezoidal method, mean ± standard error); 0.0448 ± 0.0051 µM·h in series [2] (setting [4]). Moreover, the Tmax in series [2] (setting [5]) turned out to be 8.3 ± 0.4 h; in series [2] (human plasma, after MP beverage, mean ± standard error), 8.0 ± 0.6 h.
For `O=c1c2cc(O)c(O)cc2oc2cc(O)c([C@@H]3O[C@H](CO)[C@@H](O)[C@H](O)[C@H]3O)c(O)c12` [Compound C11, mangiferin], the “time within which cleared from the bloodstream” value in series [2] (after mango intake) was in the range of 6 to 8 h. Besides, the “content in plasma (as observed from areas) after MP and MP + VC vs. VC beverage alone” value in series [2] (area vs. time profile 0−24 h) is “significantly higher”. Besides, the “plasma concentration relative to limit of quantitation” value in series [2] (human plasma after test beverages intake) is reported as “below the LOQ”. Besides, in series [2] (human, plasma, oral, 500 g, after mango intake, read-out: time to reach maximum concentration/area in plasma), the Tmax lay within 1 to 2 h. The “difference in plasma concentrations/areas after MP + VC beverage compared to MP beverage alone” value in series [2] (increase observed, statistical outcome) was “not statistically significant”.
For `COc1cc(/C=C/C(=O)O)ccc1O` [Ferulic acid], in series [1] (in vivo), the “Concentration in fasting urine, Mean ± std Error, 0 h (Fasting)” value was 0.5 ± 0.1 µM; the “Concentration in fasting urine, Mean ± std Error, 15 Days (Fasting)” value is 0.4 ± 0.1 µM; the “Concentration in fasting urine, Mean ± std Error, 24 h (Fasting)” value came to 0.4 ± 0.1 µM.
In the case of `O=C(O)CNC(=O)c1ccccc1` [Hippuric acid], in series [1], the concentration at 15 day came to 2020 ± 242 µM and the concentration at 24 h worked out at 3710 ± 582 µM.
Consider `COC(=O)CNC(=O)c1ccccc1` [Methyl hippurate], for which, in series [1] (in vivo), the “Concentration in fasting urine, Mean ± std Error, 0 h (Fasting)” value was 2.8 ± 2.3 µM; the “Concentration in fasting urine, Mean ± std Error, 15 Days (Fasting)” value is 6.3 ± 1.7 µM; the “Concentration in fasting urine, Mean ± std Error, 24 h (Fasting)” value is 7.8 ± 2.1 µM.
Consider `COc1cc(C(=O)O)cc(OC)c1O` [Syringic acid], for which, in series [1], the concentration at 15 day amounted to 1.7 ± 0.2 µM, the concentration at 0 h worked out at 3.6 ± 0.4 µM and the concentration at 24 h amounted to 5.9 ± 0.8 µM.
As for `COc1cc(C(=O)O)ccc1O` [Vanillic acid], in series [1], the concentration at 15 day stood at 4.1 ± 1 µM, the concentration at 0 h stood at 4.9 ± 0.9 µM and the concentration at 24 h is 4.4 ± 0.7 µM.
On to `O=C(O)/C=C/c1cccc(O)c1` [m-Coumaric acid], for which, in series [1] (in vivo), the “Concentration in fasting urine, Mean ± std Error, 0 h (Fasting)” value is 0.8 ± 0.1 µM; the “Concentration in fasting urine, Mean ± std Error, 15 Days (Fasting)” value came out at 0.7 ± 0.1 µM; the “Concentration in fasting urine, Mean ± std Error, 24 h (Fasting)” value worked out at 0.7 ± 0.1 µM.
On to `O=C(O)/C=C/c1ccccc1O` [o-Coumaric acid], for which, in series [1], the concentration at 15 day is 0.5 ± 0.1 µM, the concentration at 0 h was 0.9 ± 0.1 µM and the concentration at 24 h came to 0.9 µM.
For the compound `O=C(O)C=Cc1ccc(O)cc1` [p-Coumaric acid], in series [1], the concentration at 15 day turned out to be 0.3 µM, the concentration at 0 h amounted to 0.5 ± 0.1 µM and the concentration at 24 h stood at 0.4 ± 0.1 µM.
